Patent publication US20240287054A1, “COMPOUNDS THAT BIND NON-CANONICAL G-QUADRUPLEX STRUCTURES AND METHODS OF MAKING AND USING THE SAME” (The U.S.A., as Represented by the Secretary, Department of …, priority 2021, published 2024)
Where two headings read alike, the source gives them in different places.

Key:
[1] = target: MYCN G4 DNA; test: Surface plasmon resonance (SPR) with immobilized biotinylated MYCN G4 DNA; assay type: binding, human
Description: Surface plasmon resonance (SPR) analysis. The SPR binding assays were performed with a BIAcore 3000 (GE Healthcare) instrument. A CM5 SPR biochip was loaded into the system and primed with running buffer (10 mM Tris, pH7.0, 100 mM KCl, 0.005% Tween 20, 5% DMSO) with a flow rate of 5 μL/min. Then both Flow Cell (Fc) 1 and 2 were activated by EDC/NHS (0.4 M/0.1 M) aqueous solution for 15 min, followed with an injection of streptavidin (SA) solution (0.2 mg/mL in 10 mM sodium acetate buffer, pH4.5) for 30 minutes. After the immobilization amount of SA reached 8,000-10,000 RU, the surface was deactivated by flowing 1 M Ethanolamine aqueous solution (pH 8.5) for 10 min and regenerated with 10 mM NaOH for 2 min to remove the unbound SA. In the meantime, biotinylated MYCN G4 DNA was prepared at 5 μM in the annealing buffer and heated up to 95° C. for 5 min and slowly cooled down. After annealing, a total of 150 μL solution was injected in the Fc 2 of SPR system for 30 min to immobilize DNA onto the chip surface. The small molecule solutions were tested once the baseline was stable.
To detect the binding signal as well as the binding affinity, a higher flowing rate (25 μL/min) was used in both Fc 1 (reference) and Fc 2 (DNA). Each of the compound solution was prepared at 20× designed the concentrations in DMSO, and then diluted into non-DMSO running buffer, resulting in a final concentration of 5% DMSO. Then, a total of 50 μL compound solution was injected in Fc 1-2 flow path for 120 s for association, followed with 200 s running of buffer for dissociation. An injection of 50 μL regeneration buffer (1 M KCl) could be performed between two samples if necessary. The final binding curve was obtained by reference subtraction. To determine the binding affinity (KD), a series of diluted compound solutions were injected and KD was calculated by BIAevaluation 4.0 software (GE Healthcare) using Langmuir 1:1 binding model.
In this example, SPR binding assays were performed to analyze binding activity of representative bivalent compounds of the present disclosure. The compounds of this example included a non-canonical binder component and a G4 stacker component. A BIAcore 3000 (GE Healthcare) instrument was used. A CM5 SPR biochip was used and primed with running buffer (10 mM Tris, pH7.0, 100 mM KCl, 0.005% Tween 20, 5% DMSO). To immobilize the compounds onto the chip surface, the flow rate was set as 5 μL/min. Then the carboxylated dextran on the chip surface was activated by EDC/NHS (0.4 M/0.1 M) aqueous solution for 15 min, followed with an injection of streptavidin (SA) solution (0.2 mg/mL in 10 mM sodium acetate buffer, pH 4.5) for 30 minutes. After the immobilization amount of SA, the surface was quenched by injecting 1 M ethanolamine (EA) aqueous solution (pH 8.5) for 10 min and regenerated with 10 mM NaOH for 2 min to remove the physical adsorption. Furthermore, biotinylated MYCN G4 DNA was prepared at 5 μM in the annealing buffer and heated up to 95° C. for 5 min followed with slowly cooling down to room temperature within 1 h. After annealing, a total of 150 μL solution was injected in the Fc 2 of SPR system for 30 min to immobilize DNA onto the chip surface. The compound solutions were then tested once the baseline was stable.
To detect the binding signal as well as the binding affinity, a higher flowing rate (25 μL/min) was used in both Fc 1 (blank) and Fc 2 (target). Each of the compound solutions was prepared at 20× designed the concentrations in DMSO, and then diluted into non-DMSO running buffer, resulting in a final concentration of 5% DMSO. Then, a total of 50 μL compound solution was injected in Fc 1-2 flow path for 120 s for association, followed with 200 s running of buffer for dissociation. An injection of 50 μL regeneration buffer (1 M KCl) could be performed between two samples if necessary. The final binding curve was obtained by referencing the blank channel (Fc 1). […]

[2] = tested on: dsDNA; test: SPR binding to dsDNA; details: up to 5 μM compound injection
[3] = target: MYCN hairpin-G4 DNA; test: FIA using compound fluorescence (Ex 340/Em 500 nm), titration with unlabeled MYCN G4 DNA; assay type: binding, human; details: 100 nM compound titrated with folded unlabeled MYCN G4
Description: In this study, FIA was used for validating the bindings between certain bivalent and MYCN G4 oligos. To measure the binding affinity, a solution of each compound was prepared in triplicate in a 96 well-plate (Costar, black side clear bottom), resulting in a final concentration of 100 nM (5% final DMSO in the working solution). Unlabeled MYCN G4 DNA was folded based on the above-mentioned annealing method, then added into the well plate resulting in different concentrations by a seral dilution. The plate was incubated at room temperature for 30 min, followed by centrifuging at 500 rpm for 2 minutes. The fluorescence intensity was then quantitatively recorded by a Synergy Mx microplate reader (BioTek) at Ex 340 nm/Em 500 nm. The fluorescence intensities were then normalized, and the binding affinity was calculated by fitting the curve using one-site total model in GraphPad Prism 8.3.1 software.

[4] = target: MYCN G4 DNA (2-AP at A11); test: 2-Aminopurine (2-AP) fluorescence titration, A11-labeled MYCN G4; assay type: binding, human; details: 2-AP at A11 of MYCN G4
Description: 2-Aminopurine (2-AP) fluorescence titration. Fluorescence titrations based on 2-aminopurine labeling were performed using the protocol reported previously. Briefly, MYCN G4 oligonucleotide with a 2-AP substitution at either A11 or A18 position was annealed by heating the sample to 95° C. for 5 min and cooling down to RT slowly. The oligonucleotide with folded structure was diluted to 10 μM in Tris buffer (10 mM Tris, pH7.0, 100 mM KCl, 0.005% Tween 20) and prepared in a black 96-well plate (Costar) in triplicate as designed. Small molecules were diluted in DMSO to obtain a series of solutions with concentrations ranging from 0.1 to 5 mM, and then diluted by 20 times added into the plate (5% DMSO final concentration). The final concentration of 2-AP DNA was 1 μM in the well plate. To obtain the background fluorescence, small molecule solutions without DNA were also prepared in the same plate. After incubation for 30 min at RT, the plate was briefly centrifuged and scanned in Synergy Mx microplate reader (BioTek) with Ex 310 nm/Em 365 nm. Fluorescence signals were calculated by averaging the intensities in triplicate wells after subtracting the references. Finally, the binding signals were normalized and the KD value was determined by fitting the curve using a nonlinear sigmoidal dose-response model with a variable slope in GraphPad Prism 8.3.1 software.

[5] = Solubility / aggregation observations in binding buffers; assay type: physicochemical; details: assay buffers, SPR sensorgrams
Description: A systematic binding assay between 14 analogs and MYCN G4 was performed by SPR and 2-AP (A11) fluorescence titration (FIGS. 26A-26N, 27A-27N). […] For 2-AP fluorescence titration assay (using an A11-substituted construct) observed KD values aligned well with SPR experiments, although the values were slightly lower overall. […] Taking all the SAR data into consideration, MY-8 was elected for cell-based assays.

[6] = tested on: MYCN G4 DNA; test: Circular dichroism (CD) thermal melting assay of MYCN G4; assay type: binding, human; details: 10 mM sodium phosphate pH 7.0, 5 mM KCl, 5 μM DNA
Description: For thermal melt assay, MYCN oligonucleotides were prepared in a low KCl buffer (10 mM Tris, pH7.0, 5 mM KCl) at 5 μM concentration. To test the stabilization effect, G4 samples were incubated with and without 20 μM compound (final solution containing 5% DMSO). Then a total of 300 μL solution was added in a cuvette and heated from 20° C. to 95° C. in a CD spectrometer with an interval of 1° C. To calculate the melting temperature (Tm), the peak of CD spectrum at 263 nm was tracked, and […] vs temperature was plotted and fitted using a nonlinear sigmoidal dose-response model with a variable slope in GraphPad Prism 8 software. The shifting of melting temperature (ΔTm) was calculated using Tm (compound)−Tm (DMSO).
For CD melting assay, MYCN oligonucleotides were prepared in KCl buffer (10 mM sodium phosphate, pH7.0, 5 mM KCl) at 5 μM concentration. To test the stabilization effect of the compounds, MYCN G4 DNA samples were mixed with/without the compound (final solution containing 5% DMSO) at designed concentration. Then a total of 300 μL solution was added in a cuvette and heated from 20 to 80° C. in a CD spectrometer with an interval of 1° C. To calculate the melting temperature (Tm), the peak of CD spectrum at 263 nm was tracked, and […] vs temperature was plotted and fitted using a nonlinear sigmoidal dose-response model with a variable slope in GraphPad Prism 8 software.

[7] = MYCN hairpin G4, SPR titration, read-out: KD by SPR

COc1ccc(-c2noc(-c3ccc(NCCNc4c5ccc(Cl)cc5nc5ccc(OC)cc45)nn3)n2)cc1 [B32, N1-(6-chloro-2-methoxyacridin-9-yl)-N2-(6-(3-(4-methoxyphenyl)-1,2,4-oxadiazol-5-yl)pyridazin-3-yl)ethane-1,2-diamine]
Kd [1, 7]: 303 ± 32 nM
binding to dsDNA on SPR [2]: bound to dsDNA at low micromolar level
Kd [3]: 311 ± 52 nM

COc1ccc(-c2noc(-c3ccc(NCCCN4CCC(N5CCCCC5)CC4)nn3)n2)cc1 [MY-2]
Kd ([1]; MYCN G4, Langmuir 1:1 model, read-out: SPR KD): 2600 ± 1900 nM
A11 2AP KD [4]: sub-micromolar binders
Kd [4]: 200 ± 30 nM
solubility / aggregation [5]: aggregation potential/poor solubility

COc1ccc2nc3cc(Cl)ccc3c(NCCCNCCCl)c2c1 [Acridine ICR 191, reference compound]
SPR binding kinetics ([1]; MYCN G4 binding curves): fast-on/off
Kd [1, 7]: 821 ± 184 nM
binding to dsDNA on SPR [2]: dose-dependent binding signals
Kd [3]: 1040 ± 150 nM
ΔTm of MYCN G4 [6]: 4.6 °C
